Results reported in patent US10464941B2, “Therapeutic compounds” (REGENTS OF THE UNIVERSITY OF MINNESOTA, priority 2015, dated 2019).

Experiments:
[1] = target: T1, CCR5 receptors expressed in HEK-293 cells (Homo sapiens, UniProt P51681); assay: Intracellular calcium release, CCL5-stimulated CCR5 in HEK-293 cells; assay type: cell-based; details: CCR5 expressing HEK cells stimulated by CCL5
T1 construct: expressed in transfected cells; host or cells: HEK-293 cells, transient transfection with Lipofectamine 2000
Description: Briefly, HEK-293 cells were cultured at 37° C. in Dulbelcco's modified Eagle's medium supplemented with 10% fetal bovine serum and 1% Penicillin/Streptomycin. Then 100 mm^2 were transiently transfected with CCR5 receptor cDNA using OptiMEM-1 medium (Invitrogen) and Lipofectamine 2000 (Invitrogen, Carlsbad, Calif.) reagent according to manufacturer's protocol (1:2 wt/vol ratio for DNA:Lipofectamine; 16 μg DNA: 32 μl Lipofectamine). The cells were seeded into 96 well plates (half-area; Corning) at 20,000 cells/well after 24 hours and assayed 48 hours after transfection using the FLIPR calcium kit (Molecular Devices) in a Flexstation-III apparatus (Molecular Devices). Cells were incubated with the calcium dye for 45 minutes at 37° C. before the antagonists were added to each well at the concentration listed, and incubated at 37° C. for 15 minutes. The control agonist, CCL5 (RANTES), was added at a concentration that elicited an 80% maximal response in untreated cells (100 nM) to each well and the calcium response measured with and without antagonists for 90 seconds. The change in RFU was calculated by subtracting the minimum relative fluorescent unit (RFU) from the maximum RFU response, replicated 6 times and averaged. Each experiment was repeated at least 3 times and the mean±SEM was plotted for each treatment group. Plates were 80-90% confluent, cells

control mice = assay: Radiant heat tail-flick antinociception, control (LPS-untreated) mice; assay type: in vivo; details: control mice
Text: Pain is a hallmark of many inflammatory conditions.

LPS-pretreated mice = assay: animal or person
Description: Male ICR-CD1 mice (17-25 g; Harlan, Madison, Wis.), C3H mice (15-20 g, National Cancer Institute, Bethesda, Md.) or TLR4 knock-out mice (gift from Dr. Sabita Roy) were housed, 4 to a small box in a temperature- and humidity-controlled environment with unlimited access to food and water. They were maintained on a 12 h light/dark cycle. All experiments were approved by the Institutional Animal Care and Use Committee of the University of Minnesota (Minneapolis, Minn.).
The tail flick assay is used to test for antinociception described by D'Amour and Smith^64 and modified by Dewey et. al.^65 Mice are held gently in one hand with the tail positioned in the apparatus (Tail Flick Analgesia Meter, Columbus Instruments, Columbus, Ohio) for radiant heat stimulus. The tail-flick response is elicited by applying radiant heat to the dorsal side of the tail. The test latency is measured before drug treatment (control) and again after the drug treatment (test) at the peak time of the compound, a 10 s maximum cut-off time is used to prevent damage to the tail. Antinociception is quantified according to the method of Harris and Pierson^66 as the percent maximal possible effect (% MPE) which is calculated as: % MPE=(Test−Control/10−Control)×100
A minimum of three groups of eight to ten mice are used for each dose response curve, and each mouse is used only once.
The compounds were tested for acute tolerance by comparing the ED80-90 dose measured on day 1 to the same dose administered and retested 24 hours later on the same mouse.
Compounds were dissolved in 5% DMSO and diluted to less than 1% DMSO for injection. These compounds were administered in a volume of 5-μl either i.c.v (Haley and McCormick) or intrathecal (i.t.) as described for mice by Hylden and Wilcox^67 in conscious mice. […] Time course studies, including the times 5, 10, 20, 30 and 60 minutes were used to determine the peak antinociception.
Pain is a hallmark of many inflammatory conditions. […] Antinociception was evaluated using the radiant heat-induced tailflick assay. Morphine was employed as a standard opioid agonist under these conditions.

[2] = tested on: CFA-induced mechanical hyperalgesia mouse model; assay: Complete Freund's Adjuvant (CFA) mechanical hyperalgesia, electronic von Frey; assay type: in vivo, mice; details: i.t.
Description: Before injection of CFA baseline withdrawal thresholds (g) were obtained from a mechanical stimulation using an electronic von Frey anesthesiometer (IITC Life Sciences, Woodland Hills, USA) by applying an accurate force on both left and right hind paw. (2,3) The left hindpaws were then injected (intraplantar) with a 50% solution of CFA (10 μg, Sigma-Aldrich) in water while the mice are under isoflurane anesthesia (10). Twenty-four hours later the withdrawal threshold (g) was again measured prior to and after the test compound i.t. at 10, 20, 30 and 60 minutes to determine the peak time and subsequent ED50. % MPE was calculated ((Time-point withdrawal threshold with drug−CFA withdrawal threshold)/(Day 0 withdrawal threshold−CFA withdrawal threshold))*100 (Wade, C. L., et al., PLoS One 2013, 8, e79239/1-e79239/11, 11 pp; Martinov, T., et al., J Vis Exp 2013, e51212; Sorge, R. E., et al., J. Neurosci. 2011, 31, 15450-15454).

[3] = tested on: mice with cisplatin-induced hyperalgesia; assay: Cisplatin-induced peripheral neuropathy, mechanical hyperalgesia (von Frey); assay type: in vivo, C3H/HeJ mice; details: cisplatin model
Description: Adult male C3H/HeJ mice were tested for mechanical paw withdrawal responses on 2 consecutive days prior to treatment by determining the frequency of hind paw withdrawal evoked by a standard von Frey monofilament with a bending force of 3.9 mN applied to the plantar surface of the hind paws. Mice were then given 1 mg/kg of cisplatin intraperitoneal (i.p.) daily for 7 consecutive days and on day 14 post-injection, mechanical hyperalgesia was assessed. Compounds were administered intrathecally (i.t.) and i.p. weekly to determine peak time effects and ED50/80.

T1 sequence (P51681 whole entry): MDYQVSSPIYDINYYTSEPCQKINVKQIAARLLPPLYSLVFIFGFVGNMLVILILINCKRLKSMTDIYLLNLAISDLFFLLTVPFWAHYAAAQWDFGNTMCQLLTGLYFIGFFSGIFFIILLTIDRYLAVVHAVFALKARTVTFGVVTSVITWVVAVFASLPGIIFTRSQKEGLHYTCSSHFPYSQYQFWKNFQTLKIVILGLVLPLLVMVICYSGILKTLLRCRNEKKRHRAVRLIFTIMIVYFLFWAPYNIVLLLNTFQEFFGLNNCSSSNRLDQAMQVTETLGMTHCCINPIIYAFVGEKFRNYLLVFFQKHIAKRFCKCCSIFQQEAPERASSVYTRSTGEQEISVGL

SMILES	inhibiting calcium release (compared with TAK-220) [1]	CONTROLS i.c.v./i.t. ratio (control mice)	CONTROLS ED50 (CI) i.c.v. (control mice; i.c.v., tail flick)	CONTROLS ED50 (CI) i.t. (control mice; i.t., tail flick)	LPS pretreated i.c.v./i.t. ratio (LPS-pretreated mice; LPS 1 mg/kg 24 hours i.p.)	LPS pretreated ED50 (CI) i.c.v. (LPS-pretreated mice; LPS 1 mg/kg 24 hours i.p., i.c.v., tail flick)	LPS pretreated ED50 (CI) i.t. (LPS-pretreated mice; LPS 1 mg/kg 24 hours i.p., i.t., tail flick)	ED50 values (95% CI) LPS (thermal) (LPS-pretreated mice; i.t., LPS thermal hyperalgesia model)	tolerance upon repeated administration (LPS-pretreated mice; i.t., LPS-pretreated mice)	ED50 values (95% CI) CFA (mechanical) [2]	ED50 (95% CI) i.p. ([3]; i.p.)	tolerance ([3]; i.p.)	tolerance ([3]; i.p., listed as morphine)	ED50 (95% CI) i.t. ([3]; i.t.)	tolerance ([3]; i.t.)
CNC(=O)COCC(=O)N1CCC(CC(=O)N(CCCN2CCC(Cc3ccc(C(N)=O)cc3)CC2)c2ccc(C)c(Cl)c2)CC1 [Compound 8c, N-(3-(4-(4-carbamoylbenzyl)piperidin-1-yl)propyl)-N-(3-chloro-4-methylphenyl)-1-(2-(2-(methylamino)-2-oxoethoxy)acetyl)piperidine-4-carboxyamide]	equally potent														
CN1CC[C@]23c4c5ccc(O)c4O[C@H]2[C@@H](O)C=C[C@H]3[C@H]1C5 [Morphine, morphine, reference compound]		11.1	301 pmol/mouse	27.0 pmol/mouse	8.60	301 pmol/mouse	35.0 pmol/mouse	35 pmol/mouse	exhibited tolerance	15 pmol/mouse	14.28 pmol/mouse	significant tolerance	exhibits 24 h tolerance	27.44 pmol/mouse	significant tolerance
